Laboratory results: ChEMBL document CHEMBL5260805, “Therapeutic journey of 2,4-thiazolidinediones as a versatile scaffold: An insight into structure activity relationship” (Eur J Med Chem, 2017)
In brackets after ≈: the same amount, converted by molar mass.

What was measured:
Mus musculus [1] = species: Mus musculus; test: Hypoglycemic activity in KKAY mouse assessed as reduction in blood glucose level; assay type: functional
Mus musculus [2] = species: Mus musculus; test: Hypolipidemic activity in KKAY mouse assessed as reduction in triglyceride level; assay type: functional
[3] = target: Hexokinase-4 (Homo sapiens) (UniProt P35557); test: Agonist activity at glucokinase (unknown origin) assessed as fold increase at 10 uM by luciferase reporter gene assay; settings: filed as agonist
[4] = target: Peroxisome proliferator-activated receptor gamma (Homo sapiens) (UniProt P37231); test: Agonist activity at PPARgamma (unknown origin) assessed as fold increase at 10 uM by luciferase reporter gene assay; settings: filed as agonist
Rattus norvegicus [5] = species: Rattus norvegicus; test: Antidiabetic activity in Wistar rat assessed as reduction in blood glucose level after 120 mins; assay type: functional; settings: 2 h
Mus musculus [6] = test: Hypoglycemic activity in db/db mouse assessed as reduction in blood glucose level at 10 mg/kg; assay type: functional; parameters: scale not given: the % may be the effect or the level left
Mus musculus [7] = test: Hypolipidemic activity in db/db mouse assessed as reduction in triglyceride level at 10 mg/kg; assay type: functional; parameters: scale not given: the % may be the effect or the level left
Bacillus subtilis = test: Antibacterial activity against Bacillus subtilis; assay type: functional
Escherichia coli [8] = test: Antibacterial activity against Escherichia coli; assay type: functional
[9] = Inhibition of bacterial peptide deformylase; parameters: species or system Bacteria
Mus musculus [10] = species: Mus musculus; test: Antihyperglycemic activity in sucrose loaded mouse model assessed as decrease in blood glucose level; assay type: functional; parameters: scale not given: the % may be the effect or the level left
[11] = target: Peroxisome proliferator-activated receptor gamma (Homo sapiens) (UniProt P37231); test: Transactivation of PPARgamma (unknown origin) expressed in HEK293 cells at 10 uM after 24 hrs by luminometer assay; assay type: cell-based; settings: filed as activator
Rattus norvegicus [12] = species: Rattus norvegicus; test: Hypolipidemic activity in alloxan induced diabetic rat model assessed as increase in HDL; assay type: functional
Rattus norvegicus [13] = species: Rattus norvegicus; test: Hypolipidemic activity in alloxan induced diabetic rat model assessed as increase in HDL/LDL ratio; assay type: functional
Mus musculus [14] = test: Hypoglycemic activity in db/db mouse assessed as reduction in blood glucose level at 30 mg/kg/day, po administered for 6 days; assay type: functional; parameters: scale not given: the % may be the effect or the level left; settings: time 6 day
Mus musculus [15] = test: Hypolipidemic activity in db/db mouse assessed as reduction in triglyceride level at 30 mg/kg/day, po administered for 6 days; assay type: functional; parameters: scale not given: the % may be the effect or the level left; settings: time 6 day
Staphylococcus aureus [16] = test: Antibacterial activity against Staphylococcus aureus; assay type: functional
Rattus norvegicus [17] = species: Rattus norvegicus; test: Antidiabetic activity in Wistar rat assessed as increase in glucose uptake in absence of insulin after 45 mins; assay type: functional; settings: 0.75 h
Rattus norvegicus [18] = species: Rattus norvegicus; test: Antidiabetic activity in Wistar rat assessed as increase in glucose uptake in presence of insulin after 45 mins; assay type: functional; settings: 0.75 h
[19] = target: Human immunodeficiency virus type 1 reverse transcriptase (Human immunodeficiency virus 1) (UniProt Q72547); test: Inhibition of HIV-1 reverse transcriptase relative to control; settings: concentration not given here
[20] = target: Human immunodeficiency virus type 1 reverse transcriptase (Human immunodeficiency virus 1, UniProt Q72547); test: Inhibition of HIV-1 reverse transcriptase
Pseudomonas aeruginosa [21] = test: Antibacterial activity against Pseudomonas aeruginosa; assay type: functional
Salmonella typhimurium = test: Antibacterial activity against Salmonella typhimurium; assay type: functional, Salmonella enterica subsp. enterica serovar Typhimurium; settings: Salmonella enterica
Klebsiella pneumoniae = test: Antibacterial activity against Klebsiella pneumoniae; assay type: functional
Candida albicans = test: Antifungal activity against Candida albicans; assay type: functional
Aspergillus niger [22] = test: Antifungal activity against Aspergillus niger; assay type: functional
Candida parapsilosis = test: Antifungal activity against Candida parapsilosis; assay type: functional; settings: Lodderomyces parapsilosis
Nakaseomyces glabratus = test: Antifungal activity against Candida glabrata; assay type: functional
Pichia kudriavzevii = test: Antifungal activity against Candida krusei; assay type: functional
Mus musculus [23] = test: Hypoglycemic activity in C57BL/6J db/db mouse assessed as reduction in blood glucose level at 50 mg/kg after 3 days; assay type: functional; parameters: scale not given: the % may be the effect or the level left; settings: time 3 day
Mus musculus [24] = test: Hypolipidemic activity in C57BL/6J db/db mouse assessed as reduction in triglyceride level at 200 mg/kg; assay type: functional; parameters: scale not given: the % may be the effect or the level left
[25] = target: Xanthine dehydrogenase/oxidase (Homo sapiens, UniProt P47989); test: Inhibition of human milk xanthine oxidase relative to control
[26] = Inhibition of bovine lens ALR2; assay type: tissue-based, Bos taurus
RAW264.7 = test: Inhibition of LPS-induced NO production in mouse RAW264.7 cells; assay type: functional
Staphylococcus aureus [27] = test: Antibacterial activity against Staphylococcus aureus ATCC 9144; assay type: functional
[28] = tested on: Staphylococcus epidermidis; test: Antibacterial activity against Staphylococcus epidermidis ATCC-155; assay type: functional
Escherichia coli [29] = test: Antibacterial activity against Escherichia coli ATCC 25922; assay type: functional
Pseudomonas aeruginosa [30] = test: Antibacterial activity against Pseudomonas aeruginosa […]; assay type: functional
Aspergillus niger [31] = test: […] activity against Aspergillus niger ATCC-9029; assay type: functional
Aspergillus fumigatus = test: […] activity against Aspergillus fumigatus ATCC-46645; assay type: functional
[32] = target: Peroxisome proliferator-activated receptor gamma (Homo sapiens, UniProt P37231); test: Agonist activity at human PPARgamma transfected in HEK293 cells assessed increase in luciferase activity incubated for 24 hrs; assay type: cell-based
Mus musculus [33] = test: Hypoglycemic activity in db/db mouse assessed as reduction in blood glucose level at 100 mg/kg/day; assay type: functional
[34] = Bacillus subtilis, read-out: MIC

CN(CCOc1ccc(CC2SC(=O)NC2=O)cc1)c1cc(-c2ccccc2)ccn1 (stereo unspecified)
ED25 (Mus musculus [1]): 0.02 mg/kg/day
ED25 (Mus musculus [2]): 2.5 mg/kg/day

CC(C)OC(=O)c1ccc(NC(=O)Cc2ccc(/C=C3\SC(=O)NC3=O)cc2[N+](=O)[O-])nc1
fold change (FC) [3]: 2.9
Activity [4]: 48%

CCc1ccc(CCOc2ccc(CC3SC(=O)NC3=O)cc2)nc1 (stereo unspecified) [PIOGLITAZONE]
Activity (Rattus norvegicus [5]): 115 mg/dL
Activity (Mus musculus [6]): 46.2%
Activity (Mus musculus [7]): 46.9%

N#Cc1ccccc1-c1ccc(CN2C(=O)S/C(=C\c3c(Cl)cccc3Cl)C2=O)cc1
MIC (Bacillus subtilis): 100 µg/mL (≈ 215 µM)
MIC (Bacillus subtilis; [34]): 63.6 µg/mL (≈ 137 µM)
MIC (Escherichia coli [8]): 63.6 µg/mL (≈ 137 µM)
IC50 [9]: 132000 nM

Cc1nn(COc2ccc(CC3SC(=O)NC3=O)cc2)c(=O)c2ccccc12 (stereo unspecified)
Activity (Mus musculus [6]): 72%
Activity (Mus musculus [7]): 68%

CN(C)C(=N)NC(=N)N [METFORMIN]
Activity (Mus musculus [10]): -34.1%

COc1cc(Br)cc(CC2SC(=O)NC2=O)c1CC(=O)O (stereo unspecified)
Activity [11]: 65%

CN(CCOc1ccc(CC2SC(=O)NC2=O)cc1)Cc1nc(N2CCOCC2)nc(N2CCOCC2)n1 (stereo unspecified)
Activity (Rattus norvegicus [12]): 3.16%
Ratio (Rattus norvegicus [13]): 4.02

CCOC(=O)CN1C(=O)SC(Cc2ccc(O)cc2)C1=O (stereo unspecified)
Activity (Mus musculus [10]): -26.7%

CCc1nc(C)cc(=O)n1CCOc1ccc(CC2SC(=O)NC2=O)cc1 (stereo unspecified)
Activity (Mus musculus [14]): 73%
Activity (Mus musculus [15]): 85%

COc1cc(/C=C2\SC(=O)NC2=O)cc(OC)c1OC
MIC (Staphylococcus aureus [16]): 200 µg/mL (≈ 677 µM)
MIC (Escherichia coli [8]): 250 µg/mL (≈ 847 µM)

O=C(CN1C(=O)S/C(=C\c2ccc(Br)cc2)C1=O)Nc1ccc(C(=O)O)cc1
Activity (Rattus norvegicus [17]): 34.71 mg/dL
Activity (Rattus norvegicus [18]): 47.65 mg/dL

Cc1ccc(C)c(/C=C2\SC(=O)N(CCC(=O)Nc3ccccc3O)C2=O)c1
inhibition [19]: 73%
IC50 [20]: 1310 nM
MIC (Bacillus subtilis; [34]): 6.25 µg/mL (≈ 15.8 µM)
MIC (Escherichia coli [8]): 6.25 µg/mL (≈ 15.8 µM)
MIC (Pseudomonas aeruginosa [21]): 6.25 µg/mL (≈ 15.8 µM)
MIC (Salmonella typhimurium): 6.25 µg/mL (≈ 15.8 µM)
MIC (Klebsiella pneumoniae): 6.25 µg/mL (≈ 15.8 µM)
MIC (Candida albicans): 12.5 µg/mL (≈ 31.5 µM)
MIC (Aspergillus niger [22]): 25 µg/mL (≈ 63.1 µM)

O=C(CN1C(=O)S/C(=C\c2cccc(-c3cc(=O)c4ccccc4o3)c2)C1=O)c1ccc([N+](=O)[O-])cc1
MIC (Candida albicans): 6.25 µg/mL (≈ 12.2 µM)
MIC (Candida parapsilosis): 6.25 µg/mL (≈ 12.2 µM)
MIC (Nakaseomyces glabratus): 6.25 µg/mL (≈ 12.2 µM)
MIC (Pichia kudriavzevii): 6.25 µg/mL (≈ 12.2 µM)

O=C1NC(=O)C(Cc2ccc(OCCn3ccc4ccccc43)cc2)S1 (stereo unspecified)
Activity (Mus musculus [23]): 60%
Activity (Mus musculus [24]): 77%

CCc1ccc(CCOc2ccc(CC3SC(=O)N(CCCCCCC#N)C3=O)cc2)nc1 (stereo unspecified)
inhibition (INH) [25]: 72%

O=C(O)CN1C(=O)S/C(=C\c2cccc(Oc3ccccc3)c2)C1=O
IC50 [26]: 130 nM

CC(C)c1ccc(N(C)CCOc2ccc(CC3SC(=O)NC3=O)cc2)cc1 (stereo unspecified)
inhibition (INH) (RAW264.7): 51.5%

OC(Cn1cncn1)(Cn1cncn1)c1ccc(F)cc1F [FLUCONAZOLE]
MIC (Candida albicans): 12.5 µg/mL (≈ 40.8 µM)
MIC (Aspergillus niger [22]): 12.5 µg/mL (≈ 40.8 µM)

COC(=O)CN1C(=O)S/C(=C\c2cn(CC(=O)OC)cn2)C1=O
MIC (Staphylococcus aureus [27]): 3.8 µg/mL (≈ 11.2 µM)
MIC [28]: 2.2 µg/mL (≈ 6.48 µM)
MIC (Escherichia coli [29]): 1.6 µg/mL (≈ 4.72 µM)
MIC (Pseudomonas aeruginosa [30]): 2.8 µg/mL (≈ 8.25 µM)
MIC (Aspergillus niger [31]): 7.9 µg/mL (≈ 23.3 µM)
MIC (Aspergillus fumigatus): 1.7 µg/mL (≈ 5.01 µM)

COc1cc(/C=C2\SC(=O)N(CC(=O)O)C2=O)cc(OC)c1OC
Activity (Rattus norvegicus [5]): 104 mg/dL

CCOC(=O)CN1C(=O)SC(Cc2ccc(OC(C)=O)cc2)C1=O (stereo unspecified)
Activity (Mus musculus [10]): -26.8%

COC(=O)/C(=C\c1cc(OC)cc(OC)c1)c1ccc(Oc2ccc(CC3SC(=O)NC3=O)cc2)cc1 (stereo unspecified)
EC50 [32]: 284 nM

CN(CCOc1ccc(CC2SC(=O)NC2=O)cc1)c1ccccn1 (stereo unspecified) [ROSIGLITAZONE]
Activity (Rattus norvegicus [17]): 36 mg/dL
Activity (Rattus norvegicus [18]): 50.5 mg/dL
Activity (Mus musculus [10]): -11.6%
ED25 (Mus musculus [1]): 4.1 mg/kg/day
ED25 (Mus musculus [2]): > 30 mg/kg/day
Activity (Mus musculus [14]): 65%
Activity (Mus musculus [15]): 41%

O=C(O)c1cn(C2CC2)c2cc(N3CCNCC3)c(F)cc2c1=O [CIPROFLOXACIN]
MIC (Staphylococcus aureus [16]): 0.78 µg/mL (≈ 2.35 µM)
MIC (Bacillus subtilis; [34]): 0.78 µg/mL (≈ 2.35 µM)
MIC (Pseudomonas aeruginosa [21]): 0.78 µg/mL (≈ 2.35 µM)
MIC (Salmonella typhimurium): 0.78 µg/mL (≈ 2.35 µM)

Cc1c(C)c2c(c(C)c1OCc1ccccc1)C(CN1CCC[C@H]1COc1ccc(/C=C3\SC(=O)NC3=O)cc1)C(C)(C)O2 (stereo partly specified)
Activity (Mus musculus [33]): 8 mM

CC1(C)S[C@@H]2[C@H](NC(=O)[C@H](N)c3ccccc3)C(=O)N2[C@H]1C(=O)O [AMPICILLIN]
MIC (Escherichia coli [8]): 100 µg/mL (≈ 286 µM)
MIC (Candida albicans): 500 µg/mL (≈ 1430 µM)

O=C(CN1C(=O)S/C(=C\c2cccc(-c3cc(=O)c4ccccc4o3)c2)C1=O)c1ccc(F)cc1
MIC (Candida albicans): 6.25 µg/mL (≈ 12.9 µM)
MIC (Candida parapsilosis): 6.25 µg/mL (≈ 12.9 µM)
MIC (Nakaseomyces glabratus): 6.25 µg/mL (≈ 12.9 µM)
MIC (Pichia kudriavzevii): 6.25 µg/mL (≈ 12.9 µM)
